The Ki is a dissociation constant, usually derived from enzyme kinetics or from competition with a known ligand. By IC50 is commonly meant the concentration needed to halve the response being measured. A low value points to inhibition by little substance.

Structures can show the parent of a compound that is named as a salt. Where two headings read alike, the source gives them in different places.

Assay [1] has as its system A16V.S108T mutant (mut) of DHFR from Plasmodium falciparum. The assay can be described thus: biochemical. Particulars: resistance factor.
Method: (§1) For determination of the Ki values of a number of synthesized analogues, the assay reactions were initiated with affinity-purified enzyme (^˜0.005-0.01 U ml^−1), and the initial velocities in the presence of varying concentrations of inhibitors were analysed by non-linear least square fit using Kaleidagraph™ software.
Assay [2] has as its target T1, A16V.S108T mutant (mut) of DHFR from Plasmodium falciparum (Plasmodium falciparum, UniProt A7UD81, A16V/S108T).
T1 construct: The Dihydrofolate Reductase Domain of Plasmodium falciparum Thymidylate Synthase-Dihydrofolate Reductase; made in house
In words: biochemical.
Method: as §1

Assay [3] deals with T2, wild-type (wt) DHFR from Plasmodium falciparum (Plasmodium falciparum, UniProt P13922, N108S/R59C).
T2 construct: The Dihydrofolate Reductase Domain of Plasmodium falciparum Thymidylate Synthase-Dihydrofolate Reductase; made in house
The assay can be described thus: Inhibition of wild-type pfDHFR (spectrophotometric, Ki).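 Also: Affinity-purified enzyme, initial reaction rates measured across a range of inhibitor concentrations, Ki obtained by nonlinear least-squares fitting.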 The assay is classed as biochemical.
Method: as §1

In assay [4] the test system is wild-type (TM4/8.2) strain of P. falciparum. In words: microbe, parasite or virus in culture. The assay is classed as cell-based, Plasmodium falciparum. To be noted: Plasmodium falciparum; wild-type strain TM4/8.2. On the procedure: Mol. Biochem. Parasitol. […] Science, 1976, 193, 673-675]. In vitro antimalarial activity was determined by using [^3H]-hypoxanthine incorporation method [Desjardins, R. E.; Canfield, C. J.; Haynes, J. D.; Chulay, J. D. Quantitative assessment of antimalarial activity in vitro by a semiautomated microdilution technique. Antimicrob Agents Chemother. 1979, 16, 710-718]. The drugs were initially dissolved in DMSO and diluted with the culture media. Aliquots (25 μl) of drug solution of different concentrations was placed in 96-well plate together with 200 μl of 1.5% cell suspension of parasitized erythrocytes containing 1-2% parasitemia. Final concentration of DMSO was 0.1% where there was no effect on the parasite growth. The mixtures were incubated in a 3% CO2 incubator at 37° C. After 24 h of incubation, 25 μl (0.25 μCi) of [^3H]-hypoxanthine were added to each well. The mixtures were further incubated under the same condition for 18-24 h. DNA of parasites was harvested onto glass filter paper (Unifilter, Packard, USA). The filters were dried and liquid scintillation fluid was added for radioactivity measurement in a 6-probe liquid scintillation-counter (Packard, USA).

The target in assay [5] is T3, DHFR-TS from Trypanosoma cruzi (Trypanosoma cruzi, UniProt Q27793).
T3 construct: pET 11c with the insertion of the complete ORF of the gene tc-dhfrts; made in house; host or cells: E. coli BL21 (DE3)
In words: Inhibition of T. cruzi DHFR-TS (I50-derived Ki).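 Also: enzymes were recombinant T. cruzi DHFR-TS and human DHFR, both expressed in E. coli and purified on a methotrexate affinity column, with dihydrofolate and NADPH as substrates.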 The format is biochemical.
Method: DHFR activity was measured spectrophotometrically by monitoring the decrease in absorbance at 340 mm.
Inhibition of dihydrofolate reductases by 1,2-dihydro-1,3,5 triazines was analysed with T. cruzi and human DHFR.
DHFR assays contained 30 mM dihydrofolate, 0.1 mM NADPH, 50 mM TES buffer pH 7, 75 mM 2-mercaptoethanol and specified amounts of inhibitors. The reaction was initiated by addition of 2.8 or 2.3 units of T. cruzi and human, respectively, and monitored at 340 nm.
Selective inhibition of dihydrofolate reductase by 1,2-dihydro-1,3,5-triazines was analysed with T. cruzi and human DHFR. DHFR assays contained 30 μM dihydrofolate, 0.1 mM NADPH, 50 mM TES buffer pH 7, 75 mM β-mercaptoethanol and specified amounts of inhibitors. The reaction was initiated by addition of 2.8 or 2.3 units of T. cruzi and human enzyme, respectively, and monitored at 340 nm.
KiI 50=[I]0.5/((1+[S])/Km)

T2 sequence (P13922 10-228 R59C/N108S): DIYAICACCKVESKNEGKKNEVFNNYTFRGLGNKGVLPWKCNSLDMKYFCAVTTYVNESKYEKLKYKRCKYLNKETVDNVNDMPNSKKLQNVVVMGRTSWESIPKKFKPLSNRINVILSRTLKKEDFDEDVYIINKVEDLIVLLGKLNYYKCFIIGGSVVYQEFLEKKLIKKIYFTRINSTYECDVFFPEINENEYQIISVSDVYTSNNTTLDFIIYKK
T1 sequence (A7UD81 1-231 A16V/S108T): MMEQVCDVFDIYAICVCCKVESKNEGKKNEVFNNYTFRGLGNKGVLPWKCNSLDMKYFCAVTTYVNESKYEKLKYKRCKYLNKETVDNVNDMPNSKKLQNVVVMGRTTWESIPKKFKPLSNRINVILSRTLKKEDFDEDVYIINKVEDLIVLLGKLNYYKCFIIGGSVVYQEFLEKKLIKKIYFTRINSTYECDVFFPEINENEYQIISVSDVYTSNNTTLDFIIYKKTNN
T3 sequence (Q27793 whole entry): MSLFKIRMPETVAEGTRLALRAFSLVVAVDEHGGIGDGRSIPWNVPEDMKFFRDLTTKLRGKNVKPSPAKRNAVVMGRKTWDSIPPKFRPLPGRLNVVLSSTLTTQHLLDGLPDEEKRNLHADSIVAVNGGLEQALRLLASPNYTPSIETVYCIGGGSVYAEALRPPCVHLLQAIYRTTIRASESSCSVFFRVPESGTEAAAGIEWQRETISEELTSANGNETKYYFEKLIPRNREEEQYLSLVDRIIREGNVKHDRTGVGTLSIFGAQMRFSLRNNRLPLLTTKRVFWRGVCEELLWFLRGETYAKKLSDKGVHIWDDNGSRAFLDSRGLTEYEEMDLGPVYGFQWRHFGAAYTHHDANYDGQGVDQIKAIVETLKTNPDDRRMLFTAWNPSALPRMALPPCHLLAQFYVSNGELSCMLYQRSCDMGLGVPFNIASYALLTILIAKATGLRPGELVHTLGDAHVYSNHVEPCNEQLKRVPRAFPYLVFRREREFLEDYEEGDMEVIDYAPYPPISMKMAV

Turning to `NC1=NC(c2cccc(Oc3ccccc3)c2)N(c2cccc(-c3ccccc3)c2)C(N)=N1` (centres unmarked) [1-m-biphenyl-2-m-phenoxyphenyl-4,6-diamino-1,2-dihydro-1,3,5-triazine], the “Ki(mut)/Ki(wt)” value in assay [1] is on record as 2.2. Also, the figures for the Ki in assay [2] and in assay [3] (Ki(wt) nM) were 0.0048 ± 0.0009 µM and 2 nM, respectively.
For the compound `NC1=NC(c2ccc(OCc3cc(F)cc(F)c3)cc2)N(c2cccc(Cl)c2)C(N)=N1` (centres unmarked) [(Ib) R2=4-(3,5-difluorobenzyloxy)phenyl], the “Ki(mut)/Ki(wt)” value in assay [1] came to 1.7. Moreover, the results for the inhibitory constant (Ki) in assay [2] and in assay [3] (Ki(wt) nM) were 0.0074 ± 0.0007 µM and 4.4 ± 0.4 nM, respectively. Moreover, it took 3.78 µM to reach half-maximal inhibition in assay [4] (IC50).
For `NC1=NC(c2ccc(Br)cc2)N(c2cccc(Cl)c2)C(N)=N1` (centres unmarked) [(Ib) R2=4-bromophenyl] the same measures were 0.8, 0.0219 ± 0.0025 µM, 27 ± 4.5 nM and 9.1 µM.
`CCCOc1ccc(C2N=C(N)N=C(N)N2c2cccc(Cl)c2)cc1` (centres unmarked) [(Ib) R2=4-(n-propyloxy)phenyl]: affinity in assay [2] was put at a Ki of 0.0093 ± 0.0006 µM. This compound also came in with an IC50 in assay [4] of 0.248 µM.
`COc1ccc(C2N=C(N)N=C(N)N2c2cccc(Cl)c2)cc1` (centres unmarked) [(Ib) R2=4-methoxyphenyl]: in assay [1], the “Ki(mut)/Ki(wt)” value amounted to 0.6. The figures for the Ki in assay [2] and in assay [3] (Ki(wt) nM) were 0.0125 ± 0.0009 µM and 21.8 ± 1 nM, respectively. In assay [4], inhibition was half-maximal at 2.56 µM (IC50).
Take `NC1=NC(c2ccc(O)cc2)N(c2ccc(Cl)cc2)C(N)=N1` (centres unmarked) [(Ia) R2=p-hydroxyphenyl]: the “Ki(mut)/Ki(wt)” value in assay [1] is recorded as 8.6. For the same compound, the Ki in assay [2] was determined as 0.098 ± 0.01 µM; in assay [3] (Ki(wt) nM), 11.3 ± 1.7 nM.
Regarding `NC1=NC(c2cccc(Oc3ccc(Cl)cc3)c2)N(c2ccc(Cl)cc2)C(N)=N1` (centres unmarked) [(Ia) R2=3-(4-chlorophenoxy)phenyl], the “Ki(mut)/Ki(wt)” value in assay [1] worked out at 5.3. Moreover, the Ki in assay [2] worked out at 0.0075 µM; in assay [3] (Ki(wt) nM), 1.4 ± 0.3 nM. Half-maximal inhibition in assay [4] (IC50) required 2.85 µM.
`NC1=NC(c2ccccc2)N(c2ccc(Cl)c(Cl)c2)C(N)=N1` (centres unmarked) [(Ic) R2=Ph, 1-(3′,4′-Dichlorophenyl)-2-phenyl-4,6-diamino-1,2-dihydro-1,3,5-triazine hydrochloride]: inhibition in assay [4] was half-maximal at 0.026 µM (IC50).
On to `COc1ccc(Oc2cccc(C3N=C(N)N=C(N)N3c3ccc(Cl)c(Cl)c3)c2)cc1` (centres unmarked) [(Ic) R2=3-(4-methoxyphenoxy)phenyl], for which the “Ki(mut)/Ki(wt)” value in assay [1] came out at 3.9. In addition, the Ki in assay [2] worked out at 0.0074 ± 0.0008 µM; in assay [3] (Ki(wt) nM), 1.9 ± 0.3 nM. In assay [4], this compound came in with an IC50 of 2.93 µM.
For `COc1cc(OC)cc(C2N=C(N)N=C(N)N2c2cccc(Cl)c2)c1` (centres unmarked) [(Ib) R2=3,5-dimethoxyphenyl], the “Ki(mut)/Ki(wt)” value in assay [1] was 0.4. Also, the Ki turned out to be 0.0309 ± 0.003 µM in assay [2] and 79.4 ± 7 nM in assay [3] (Ki(wt) nM). The same compound returned a half-maximal inhibitory concentration (IC50) in assay [4] above 50 µM.
On to `N#Cc1ccc(C2N=C(N)N=C(N)N2c2ccc(Cl)cc2)cc1` (centres unmarked) [(Ia) R2=p-cyanophenyl], for which the values for the inhibition constant Ki in assay [5], in assay [2] and in assay [3] (Ki(wt) nM) were 0.65 µM, 0.205 ± 0.022 µM and 11.3 ± 1.4 nM, respectively. Further, the IC50 in assay [4] turned out to be 0.804 µM.
As to `COc1cc(C2N=C(N)N=C(N)N2c2cccc(Cl)c2)cc(OC)c1OC` (centres unmarked) [(Ib) R2=3,4,5-trimethoxyphenyl], the “Ki(mut)/Ki(wt)” value in assay [1] is on record as 1.0. Also, the Ki in assay [2] worked out at 1.01 ± 0.027 µM; in assay [3] (Ki(wt) nM) it was 960 ± 79 nM. The IC50 in assay [4] was above 50 µM.
For `NC1=NC(c2cccc(Oc3cc(Cl)cc(Cl)c3)c2)N(c2cccc(Cl)c2)C(N)=N1` (centres unmarked) [(Ib) R2=3-(3,5-dichlorophenoxy)phenyl] the same measures were 2.6, 0.0047 ± 0.0004 µM, 1.8 ± 0.6 nM and 5.47 µM.
For the compound `CC1(C)N=C(N)N=C(N)N1c1ccc(Cl)cc1` [cycloguanil, Cycloguanil, reference compound], the Ki in assay [5] (T. cruzi DHFR-TS, read-out: T. cruzi Ki (I50)) was determined as 0.37 µM; in assay [2], 1.31 µM; in assay [3] (read-out: Ki(wt)), 1.5 nM. Besides, half-maximal inhibition in assay [4] (IC50) was put at 0.04 µM.
Turning to `COc1ccc(C2N=C(N)N=C(N)N2c2cccc(Cl)c2)cc1OC` (centres unmarked) [(Ib) R2=3,4-dimethoxyphenyl], in assay [1], the “Ki(mut)/Ki(wt)” value amounted to 6.0. Further, the inhibition constant (Ki) in assay [2] amounted to 0.164 ± 0.006 µM; in assay [3] (Ki(wt) nM), 27.2 ± 2 nM. In assay [4], this compound returned an IC50 of 6.82 µM.

The record behind these values is US20030203908A1, “Dihydrofolate reductase inhibitors” (priority 2000, published 2003).
